biological target: T1, human TSHR (Homo sapiens, UniProt P16473); assay: Measurement of antagonist activity using TSH-induced cAMP production in human TSHR-stably expressing CHO cells; assay type: cell-based; conditions: human TSH final concentration 50 ng/mL
T1 construct: expressed in transfected cells
Experimental: Measurement of Antagonist Activity Using TSH-induced cAMP Production in Human TSHR-stably Expressing CHO Cells as an Indicator
A gene sequence of human TSHR (reference number NM_000369.2) was inserted into a multiple cloning site of pcDNA3.1(+). The prepared plasmid vector was introduced into CHO cells by a lipofection method to establish human TSHR stably expressing CHO cells. The obtained cells were seeded in a poly-D-lysine-coated 96-well plate at 5 x 10^4 cells/well, and cultured for 1 day in F12 medium containing 10% FBS, 400 µg/mL G418, 50 U/mL penicillin, and 50 µg/mL streptomycin under conditions of 37°C and 5% CO2. After removing a medium, the cells were washed twice with 100 µL per well of an assay buffer (Hanks' Balanced Salt Solution containing 20 mM HEPES and 1 mM IBMX). 30 µL of an assay buffer containing a test compound was added to a well, and the mixture was incubated at room temperature for 15 minutes. Next, 30 µL of an assay buffer containing human TSH (R&D Systems, Inc., final concentration 50 ng/mL) was added, and the mixture was incubated at 37°C for 1 hour. The supernatant was removed, and Lysis and Detection Buffer 2 (Cisbio) was added to prepare a cell lysate by incubating at room temperature for 1 hour. According to the instructions for use of a cAMP Gs HiRange kit (Cisbio), a cell lysate was reacted with d2-labeled cAMP and an anti-cAMP Europium Cryptate labeled antibody (Cisbio) in a 384-well white microplate. Next, a fluorescence intensity ratio (measurement wavelengths 665 nm/620 nm) was measured using a multiplate reader (PHERAstar FSX, BMG LABTECH Japan). A fluorescence intensity ratio of each sample was converted into a cAMP content using a standard curve. A cAMP content was converted into a percentage of a control value, and a cAMP production rate was calculated. Using Prism (Graph Pad Software Inc.), a cAMP production rate was plotted against a test compound concentration, and an IC50 value was calculated. The IC50 of each test compound is shown in the above tables. In the tables, IC50 < 3.0 µM was denoted as A, and 3.0 µM ≤ IC50 < 30 µM was denoted as B. The case where activity was observed but an IC50 value could not be calculated was denoted as C.

T1 sequence (P16473 21-764): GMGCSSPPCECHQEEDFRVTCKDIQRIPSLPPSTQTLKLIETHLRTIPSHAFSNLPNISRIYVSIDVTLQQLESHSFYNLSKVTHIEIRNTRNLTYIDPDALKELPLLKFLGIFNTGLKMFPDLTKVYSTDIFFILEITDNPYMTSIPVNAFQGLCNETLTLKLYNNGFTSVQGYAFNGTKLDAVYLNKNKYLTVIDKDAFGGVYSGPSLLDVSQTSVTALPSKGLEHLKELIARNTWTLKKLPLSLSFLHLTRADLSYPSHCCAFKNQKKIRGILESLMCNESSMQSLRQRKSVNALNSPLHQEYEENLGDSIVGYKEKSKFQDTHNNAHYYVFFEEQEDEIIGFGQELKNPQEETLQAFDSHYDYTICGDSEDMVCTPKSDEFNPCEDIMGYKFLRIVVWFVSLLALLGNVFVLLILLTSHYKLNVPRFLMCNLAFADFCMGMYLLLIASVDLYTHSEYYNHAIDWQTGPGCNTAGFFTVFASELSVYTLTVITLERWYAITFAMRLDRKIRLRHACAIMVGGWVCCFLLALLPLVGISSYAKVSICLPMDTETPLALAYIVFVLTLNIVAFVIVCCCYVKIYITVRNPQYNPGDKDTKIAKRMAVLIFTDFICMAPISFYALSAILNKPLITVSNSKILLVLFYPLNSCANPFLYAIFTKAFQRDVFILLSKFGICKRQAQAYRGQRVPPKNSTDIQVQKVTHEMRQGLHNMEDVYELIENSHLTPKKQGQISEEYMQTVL

IC50 [µM] | SMILES
3 to 30 | C[C@@H]1CC[C@@H](NC(N)=O)C(=O)N1Cc1cc(Br)ccc1F (relative stereo) [Example A-1, 1-((3R^*,6R^*)-1-(5-bromo-2-fluorobenzyl)-6-methyl-2-oxopiperidin-3-yl)urea]
< 3 | C[C@@H]1CC[C@@H](NC(N)=O)C(=O)N1Cc1cc(C(F)F)ccc1F (relative stereo) [Example A-2, 1-((3R^*,6R^*)-1-(5-(difluoromethyl)-2-fluorobenzyl)-6-methyl-2-oxopiperidin-3-yl)urea]
< 3 | C[C@@H]1CC[C@@H](NC(N)=O)C(=O)N1Cc1cc(C(F)(F)F)cc(Cl)c1F (relative stereo) [Example A-3, 1-((3R^*,6R^*)-1-(3-chloro-2-fluoro-5-(trifluoromethyl)benzyl)-6-methyl-2-oxopiperidin-3-yl)urea]
3 to 30 | C[C@@H]1CC[C@@H](NC(N)=O)C(=O)N1Cc1cc(-c2ccccc2)ccc1F (relative stereo) [Example A-4, 1-((3R^*,6R^*)-1-((4-fluoro-[1,1'-biphenyl]-3-yl)methyl)-6-methyl-2-oxopiperidin-3-yl)urea]
< 3 | C[C@@H]1CC[C@@H](NC(N)=O)C(=O)N1Cc1cc(Cc2ccccc2)ccc1F (relative stereo) [Example A-5, 1-((3R^*,6R^*)-1-(5-benzyl-2-fluorobenzyl)-6-methyl-2-oxopiperidin-3-yl)urea]
3 to 30 | C[C@@H]1CC[C@@H](NC(N)=O)C(=O)N1Cc1cccc(Oc2ccccc2)c1 (relative stereo) [Example A-6, 1-((3R^*,6R^*)-6-methyl-2-oxo-1-(3-phenoxybenzyl)piperidin-3-yl)urea]
< 3 | C[C@@H]1CC[C@@H](NC(N)=O)C(=O)N1Cc1cc(C#Cc2ccccc2)ccc1F (relative stereo) [Example A-7, 1-((3R^*,6R^*)-1-(2-fluoro-5-(phenylethynyl)benzyl)-6-methyl-2-oxopiperidin-3-yl)urea]
< 3 | C[C@@H]1CC[C@@H](NC(N)=O)C(=O)N1Cc1cc(C#Cc2ccncc2)ccc1F (relative stereo) [Example A-8, 1-((3R^*,6R^*)-1-(2-fluoro-5-(pyridin-4-ylethynyl)benzyl)-6-methyl-2-oxopiperidin-3-yl)urea]
< 3 | C[C@@H]1CC[C@@H](NC(N)=O)C(=O)N1Cc1cc(C#Cc2cccnc2)ccc1F (relative stereo) [Example A-9, 1-((3R^*,6R^*)-1-(2-fluoro-5-(pyridin-3-ylethynyl)benzyl)-6-methyl-2-oxopiperidin-3-yl)urea]
3 to 30 | C[C@@H]1CC[C@@H](NC(N)=O)C(=O)N1Cc1cc(C#CC2CC2)ccc1F (relative stereo) [Example A-10, 1-((3R^*,6R^*)-1-(5-(cyclopropylethynyl)-2-fluorobenzyl)-6-methyl-2-oxopiperidin-3-yl)urea]
< 3 | C[C@@H]1CC[C@@H](NC(N)=O)C(=O)N1Cc1cc(OCc2ccccc2)ccc1F (relative stereo) [Example A-11, 1-((3R^*,6R^*)-1-(5-(benzyloxy)-2-fluorobenzyl)-6-methyl-2-oxopiperidin-3-yl)urea]
< 3 | C[C@@H]1CC[C@@H](NC(N)=O)C(=O)N1Cc1cc(CCc2ccccc2)ccc1F (relative stereo) [Example A-12, 1-((3R^*,6R^*)-1-(2-fluoro-5-phenethylbenzyl)-6-methyl-2-oxopiperidin-3-yl)urea]
< 3 | CC(C)(C)OC(=O)NCC[C@@H]1C[C@H](NC(N)=O)C(=O)N(Cc2cc(C(F)(F)F)ccc2F)C1 (relative stereo) [Example A-19, tert-butyl (2-((3R*,5S*)-1-(2-fluoro-5-(trifluoromethyl)benzyl)-6-oxo-5-ureidopiperidin-3-yl)ethyl)carbamate]
< 3 | NC(=O)N[C@@H]1C[C@H]2C[C@H]2N(Cc2cc(C(F)(F)F)ccc2F)C1=O (relative stereo) [Example A-21, 1-((1R^*,4R^*,6S^*)-2-(2-fluoro-5-(trifluoromethyl)benzyl)-3-oxo-2-azabicyclo[4.1.0]heptan-4-yl)urea]
3 to 30 | C[C@H]1CC[C@@H](NC(N)=O)C(=O)N1CCc1cccc(C(F)(F)F)c1 (relative stereo) [Example A-23, 1-((3R^*,6S^*)-6-methyl-2-oxo-1-(3-(trifluoromethyl)phenethyl)piperidin-3-yl)urea]
> 30 | NC(=O)N[C@@H]1C[C@@H]2CCCC[C@H]2N(Cc2cccc(C(F)(F)F)c2)C1=O (relative stereo) [Example A-29, 1-((3R^*,4aS^*,8aR^*)-(2-oxo-1-(3-(trifluoromethyl)benzyl)decahydroquinolin-3-yl)urea]
> 30 | CN(C)C(=O)C[C@@H]1CC[C@@H](NC(N)=O)C(=O)N1Cc1cc(C(F)(F)F)ccc1F (relative stereo) [Example D-10, 2-((2S^*,5R^*)-1-(2-fluoro-5-(trifluoromethyl)benzyl)-6-oxo-5-ureidopiperidin-2-yl)-N,N-dimethylacetamide]
< 3 | C[C@@H]1CC[C@@H](NC(N)=O)C(=O)N1Cc1cc(C(F)(F)F)ccc1F [Example A-13, 1-((3R,6R)-1-(2-fluoro-5-(trifluoromethyl)benzyl)-6-methyl-2-oxopiperidin-3-yl)urea]
< 3 | NC(=O)N[C@@H]1CC[C@@H](C(F)(F)F)N(Cc2cc(C(F)(F)F)ccc2F)C1=O [Example A-14, 1-((3R,6S)-1-(2-fluoro-5-(trifluoromethyl)benzyl)-2-oxo-6-(trifluoromethyl)piperidin-3-yl)urea]
< 3 | NC(=O)N[C@@H]1CC[C@@H](C(F)(F)F)N(Cc2cc(C(F)F)ccc2F)C1=O [Example A-15, 1-((3R,6S)-1-(5-(difluoromethyl)-2-fluorobenzyl)-2-oxo-6-(trifluoromethyl)piperidin-3-yl)urea]
< 3 | NC(=O)N[C@@H]1CC[C@@H](C(F)(F)F)N(Cc2cc(OC(F)(F)C(F)F)ccc2F)C1=O [Example A-16, 1-((3R,6S)-1-(2-fluoro-5-(1,1,2,2-tetrafluoroethoxy)benzyl)-2-oxo-6-(trifluoromethyl)piperidin-3-yl)urea]
< 3 | NC(=O)N[C@@H]1CC[C@@H](C(F)F)N(Cc2cc(C(F)(F)F)ccc2F)C1=O [Example A-17, 1-((3R,6S)-6-(difluoromethyl)-1-(2-fluoro-5-(trifluoromethyl)benzyl)-2-oxopiperidin-3-yl)urea]
> 30 | NC(=O)N[C@@H]1C[C@H](F)CN(Cc2cc(C(F)(F)F)ccc2F)C1=O [Example A-18, 1-((3R,5S)-5-fluoro-1-(2-fluoro-5-(trifluoromethyl)benzyl)-2-oxopiperidin-3-yl)urea]
3 to 30 | NC(=O)NC1CCC2(CC2)N(Cc2cccc(C(F)(F)F)c2)C1=O (stereo not drawn) [Example A-20, 1-(5-oxo-4-(3-(trifluoromethyl)benzyl)-4-azaspiro[2.5]octan-6-yl)urea]
> 30 | CC(c1cc(C(F)(F)F)ccc1F)N1C(=O)[C@H](NC(N)=O)CC[C@H]1C(F)(F)F (stereo partly drawn) [Example A-22, 1-((3R,6S)-1-(1-(2-fluoro-5-(trifluoromethyl)phenyl)ethyl)-2-oxo-6-(trifluoromethyl)piperidin-3-yl)urea]
< 3 | CNC(=O)N[C@@H]1CC[C@@H](C(F)(F)F)N(Cc2cc(C(F)(F)F)ccc2F)C1=O [Example A-24, 1-((3R,6S)-1-(2-fluoro-5-(trifluoromethyl)benzyl)-2-oxo-6-(trifluoromethyl)piperidin-3-yl)-3-methylurea]
> 30 | CO[C@@H](C)C(=O)N[C@@H]1CC[C@@H](C(F)(F)F)N(Cc2cc(C(F)(F)F)ccc2F)C1=O [Example A-25, (S)-N-((3R,6S)-1-(2-fluoro-5-(trifluoromethyl)benzyl)-2-oxo-6-(trifluoromethyl)piperidin-3-yl)-2-methoxypropanamide]
3 to 30 | O=C(NC1CC1)N[C@@H]1CC[C@@H](C(F)F)N(Cc2cc(C(F)(F)F)ccc2F)C1=O [Example A-26, 1-cyclopropyl-3-((3R,6S)-6-(difluoromethyl)-1-(2-fluoro-5-(trifluoromethyl)benzyl)-2-oxopiperidin-3-yl)urea]
3 to 30 | CC(=O)N[C@@H]1CC[C@@H](C(F)F)N(Cc2cc(C(F)(F)F)ccc2F)C1=O [Example A-27, N-((3R,6S)-6-(difluoromethyl)-1-(2-fluoro-5-(trifluoromethyl)benzyl)-2-oxopiperidin-3-yl)acetamide]
< 3 | O=C(N[C@@H]1CC[C@@H](C(F)F)N(Cc2cc(C(F)(F)F)ccc2F)C1=O)C1CC1 [Example A-28, N-((3R,6S)-6-(difluoromethyl)-1-(2-fluoro-5-(trifluoromethyl)benzyl)-2-oxopiperidin-3-yl)cyclopropanecarboxamide]
